{
  "source": "patent US20250059520A1",
  "about": "“SGK1 INHIBITORY COMPOSITIONS AND METHODS” (Arizona Board of Regents on Behalf of the University of …, priority 2021, published 2025)",
  "key": {"[1]": {"system": "isolated adult mouse ventricular myocytes (AMVMs)", "test": "Uptake, hypertrophic growth and ANP mRNA in AMVMs treated ± PE for 24 h", "format": "cell-based", "details": "AMVMs ± PE 24 h, several peptide doses", "procedure": "FIGS. 12A to 12E show TAT-SGK1-(Pep) Stops Growth of Myocytes.\n(§1) TAT-SGK1-(Pep) inhibits myocyte growth and fibroblast activation: Next, a SGK1-(Pep) peptide was designed and synthesized with an N-terminal TAT sequence to facilitate its direct delivery to cultured cells, and potentially to mice. To test its effectiveness, isolated adult mouse ventricular myocytes (AMVMs) were treated with either vehicle or a FITC-labeled form of the peptide, then imaged to show uptake (FIG. 12A). […] Thus, the TAT-SGK1-(Pep) affects AMVM growth as anticipated. […] Finally, since TGFβ-stimulated SGK1 has been implicated in fibrosis (Artunc F and Lang F. Nephron Physiol. 2014 128:35-9), a major maladaptive aspect of pressure overload cardiac pathology, the effects of the TAT-SGK1-(Pep) on TGFβ-mediated induction of two markers of fibrosis, α-smooth muscle actin (α-SMA) and periostin, was examined in adult mouse ventricular fibroblasts (AMVF). […] These findings underscore the SGK1-specificity of the peptide, as well as the possibility that some of the adaptive effects of the peptide could include dampening inflammasome activation and decreasing fibrosis."}, "endogenous SGK1 [2]": {"system": "endogenous SGK1", "test": "Rate of endogenous SGK1 degradation in AMVM", "format": "cell-based, mouse"}, "endogenous SGK1 [3]": {"system": "endogenous SGK1", "test": "Rate of endogenous SGK1 degradation in NRVM", "format": "cell-based, rat", "details": "degradation dependent on Hrd1"}, "[4]": {"system": "adult mouse ventricular fibroblasts (AMVF)", "test": "TGFβ-mediated induction of fibrosis and inflammasome marker mRNAs in AMVF (qRT-PCR)", "format": "cell-based", "details": "48 h", "procedure": "FIGS. 13A to 13C show effects of TAT-SGK1-(Pep) in AMVFs: TAT-SGK1-(Pep) [P] added to AMVFs at the conc shown±TGFβ. 48 h later cultures analyzed for α-SMA (FIG. 13A), periostin (FIG. 13B), IL1b (FIG. 13C) mRNAs shown by qRT-PCR. n=3 cultures/treatment*$ p<0.05 different from all other values (ANOVA).\nas §1"}, "[5]": {"system": "TAC-induced heart failure with reduced ejection fraction", "test": "Heart failure induced by transaortic constriction (TAC) in mice, echocardiography", "format": "in vivo, mouse", "excerpt": "Animals were randomly assigned to cohorts and a five-digit identifier number.\nFIGS. 18A to 18D show LV mass (FIG. 18A), ejection fraction (FIG. 18B), cardiac stiffening (E/e′) (FIG. 18C), and A wave (FIG. 18D) in mice treated with control peptide, SGK1 peptide, or delayed treatment of SGK1 peptide. The mice were 4-weeks into a 6-week heart failure paradigm induced by transaortic constriction (TAC), a gold standard preclinical model of heart failure with reduced ejection fraction. […] Consistent pressure gradients to confirm standardized severity of the TAC procedure across cohorts is performed 1-week post-TAC via carotid flow Doppler ratios of the inominate to left common carotids."}, "GILZ": {"target": "T1, GILZ (Rattus norvegicus, UniProt Q9EQZ1)", "T1 construct": "FLAG IP efficiently pulled down the FLAG-SGK peptide (5, 6) as well as GILZ (7, 8); endogenous in cells; host or cells: NRVM (neonatal rat ventricular myocytes) infected with AdV-Con or AdV-FLAG-SGK1(122-157)", "T1 sequence (Q9EQZ1 1-134)": "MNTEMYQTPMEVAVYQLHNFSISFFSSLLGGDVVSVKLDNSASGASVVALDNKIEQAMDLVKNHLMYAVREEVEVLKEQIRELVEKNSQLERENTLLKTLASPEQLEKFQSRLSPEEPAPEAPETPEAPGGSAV", "test": "FLAG immunoprecipitation of GILZ from NRVM infected with AdV-FLAG-SGK1(122-157)", "format": "binding", "excerpt": "(§2) FIGS. 11A to 11C show SGK1(122-157) Interrupts SGK1/GILZ Interaction and Decreases Cardiac Myocyte Growth. FIG. 11A illustrates how a small SGK1-related peptide could disrupt SGK1-GILZ interaction, increase SGK1 degradation and reduce cardiac myocyte growth. […] NRVM were infected with AdV-Con or FLAG-SGK-(122-157). […] FLAG IP efficiently pulled down the FLAG-SGK peptide (5, 6) as well as GILZ (7, 8).\n(§3) Thus, it is anticipated that AAV9-FLAG-SGK1-(Pep) can increase SGK1 degradation and, thus, blunt pressure overload-induced pathological cardiac hypertrophy and subsequent heart failure in mice, in vivo."}, "[6]": {"system": "neonatal rat ventricular myocytes (NRVMs)", "test": "PE-mediated ANP expression, growth and SGK1 degradation in NRVM with ectopic expression of the SGK1 peptide", "format": "cell-based", "details": "NRVM ± AdV-SGK1 peptide", "excerpt": "as §2\nSGK1 and GILZ were shown herein to be increased in pathological hypertrophic human and mouse hearts. In mice, SGK1 degradation was slowed during pressure overload. Cardiac-specific deletion of SGK1 in mice decreased pressure overload-induced hypertrophy, whereas overexpression of SGK1 increased it. Removing the SGK1 ER-targeting sequence, or overexpressing GILZ decreased SGK1 degradation in neonatal rat ventricular myocytes (NRVMs) and increased growth; GILZ knockdown decreased growth. A 35 amino acid region in SGK1 that interacts with GILZ was identified; ectopic expression of this peptide increased SGK1 degradation and decreased NRVM growth.\nas §3"}, "[7]": {"details": "chronic administration, 4 weeks into 6-week TAC paradigm"}},
  "note": "Ends that are not written are not given here.",
  "data": [
    {"sequence": "GRKKRRQRRRPQVFYAVKVLQKKAILKKKEEKHIMSERNVLLKNVKHP [TAT-SGK1-(Pep)]", "values": [
      {"measurement": "ANP mRNA", "setting": "[1]", "value": "dose-dependent decrease"},
      {"measurement": "cardiac myocyte remodeling (hypertrophic growth, width to length ratio)", "setting": "[1]", "value": "dose-dependent decrease"},
      {"measurement": "endogenous SGK1 degradation", "setting": "endogenous SGK1 [2]", "value": "accelerate endogenous SGK1 degradation"},
      {"measurement": "endogenous SGK1 degradation", "setting": "endogenous SGK1 [3]", "value": "accelerate endogenous SGK1 degradation"},
      {"measurement": "TGFβ-mediated induction of periostin mRNA", "setting": "[4]", "value": "effectively inhibited induction"},
      {"measurement": "TGFβ-mediated induction of α-smooth muscle actin (α-SMA) mRNA", "setting": "[4]", "value": "effectively inhibited induction"},
      {"measurement": "mRNA for IL1β, marker of inflammasome activation", "setting": "[4]", "value": "inhibited"},
      {"measurement": "TAC-induced left ventricular hypertrophy (LV Mass)", "setting": "[5]; [7]", "value": "conferring protection"},
      {"measurement": "diastolic dysfunction and cardiac stiffening (E/e′)", "setting": "[5]; [7]", "value": "conferring protection"},
      {"measurement": "early indicator of congestion (mitral atrial flow velocity, A wave)", "setting": "[5]; [7]", "value": "conferring protection"},
      {"measurement": "systolic dysfunction (ejection fraction)", "setting": "[5]; [7]", "value": "conferring protection"},
      {"measurement": "toxic effects", "setting": "[5]; [7]", "value": "no signs of untoward toxic effects"},
      {"measurement": "cardiac dysfunction and remodeling", "setting": "[5]; delayed administration starting at 2-weeks post-TAC", "value": "shows signs of cardioprotection and reversal of early cardiac dysfunction and remodeling"}
    ]},
    {"sequence": "VFYAVKVLQKKAILKKKEEKHIMSERNVLLKNVKHP (not fully specified) [SGK1-(Pep), FLAG-tagged amino acids 122-157 of SGK1, ectopically expressed from an adenovirus (AdV)]", "values": [
      {"measurement": "binding to GILZ in IP experiments", "setting": "GILZ", "value": "could bind to GILZ"},
      {"measurement": "PE-mediated ANP expression (ANP mRNA)", "setting": "[6]", "value": "blunted PE-mediated ANP expression"}
    ]}
  ]
}
